Measured values published in patent US11091806B2, “Genetic markers associated with response to CRTH2 receptor antagonists” (Merck Sharp & Dohme Corp., priority 2015, dated 2021).

How the values were obtained:
[1] = test system: asthmatic subjects with persistent symptoms; assay: 17-week randomized, double-blind, placebo-controlled, crossover study of FEV1 in asthmatic subjects receiving montelukast, with pharmacogenetic subgroup analysis; type: in vivo, human; conditions: for Estimated mean treatment difference in FEV1 at Week 4 using the new method of analysis, LSMean: Compound A + montelukast vs placebo + montelukast, xdiff=0
Text: FIG. 2 is graphical depiction of the study design. The study was a 17-week randomized, double-blind, placebo-controlled, crossover study with in-house blinding to evaluate the effect of {(7R)-4-fluoro-7-[5-(4-fluorobenzyl)-1H-[1,2,3]triazol-1-yl]-6,7,8,9-tetrahydropyrido[1,2-a]indol-10-yl}-acetic acid (hereinafter “Compound A”) on FEV1 when dosed for 4 weeks in asthmatic subjects with persistent symptoms while receiving montelukast (ML). Overall, 104 patients completed the study. Period I was a pre-study period. Subjects receiving long acting beta-agonists (LABAs) with inhaled corticosteroid (ICS), either separately or as part of a fixed-dose combination, were asked to discontinue the LABA component while still receiving ICS. Period II was a 2- to 4-week run-in period during which subjects receive open-label montelukast (ML) and single-blind placebo (PBO). Subjects receiving ICS or other controllers were required to taper off these medications while receiving montelukast; Period III was a 4-week, double-blind, randomized treatment period during which subjects received either Compound A 150 mg or matching-image placebo while continuing to receive montelukast 10 mg QD; Period IV was a 4-week wash out period during which subjects receive placebo in a single-blind fashion while continuing to receive montelukast 10 mg QD; Period V was a 4-week double-blind period during which subjects were crossed over to the opposite treatment not received during Period III.
The primary efficacy endpoint of the study was forced expiratory volume in 1 second (FEV1) after 4 weeks of dosing, and the study had 85% power to detect a true overall mean treatment difference of 110 mL.
A common analysis for crossover designs with longitudinal measurements in each period uses a linear mixed effects “cell means” model with the clinical measure (here, FEV1) as the dependent variable, and sequence (S=M→P, P→M), treatment (T=M,P), visit (V=0, 2, 4 weeks), and all possible interactions involving S, T, and V as independent variables; M=Compound A+montelukast, P=placebo+montelukast. In addition, to minimize assumptions, a covariance matrix without imposition of any structure (such as compound symmetry) is used to account for the intra-patient correlations among FEV1 responses over time and across the two treatments within each sequence.
This common analysis can be misleading if both of the following conditions are encountered in either crossover sequence: (i) the observed mean difference in baseline means for the two treatments is “far” from zero, and (ii) baseline and post-baseline responses are very strongly correlated (correlation 0.9 or higher). […] Consequently, we analyzed the FEV1 data using an extension of the method of analysis described in Mehrotra D V, Pharmaceutical Statistics 13, 376-387 (2014). This second analytical method is specifically designed for crossover analyses with baseline measurements. To do so, we added “xdiff” (baseline difference between treatments M and P) and interactions between xdiff and all the other fixed effect terms involving S, T, and V to the aforementioned common analysis crossover model; the mean treatment difference at week 4 was estimated at xdiff=0 via the SAS code below.
In the SAS code above, patients with a missing xdiff value are automatically removed from the analysis. To generate results in which all 103 patients are retained in the analysis, missing period 2 baseline FEV1 values (resulting in missing xdiff values, which was the case for ˜20% of the patients due to dropout) were imputed separately in each sequence via a simple linear regression model with the period 2 baseline as the dependent variable and the corresponding period 1 baseline as the independent variable. As noted earlier, the observed correlation between period 1 and period 2 FEV1 baselines was 0.9 in both sequences, providing reassurance that the imputed values for missing period 2 baselines had good reliability. […]

[2] = test system: allergic rhinitis; conditions: in vivo; cited from earlier work
[3] = test system: patient population afflicted with eosinophilic severe asthma; conditions: patients with eosinophilic severe asthma; Phase IIa; cited from earlier work

O=C(O)Cc1c2n(c3c(F)cccc13)C[C@H](n1nncc1Cc1ccc(F)cc1)CC2 [Compound A, {(7R)-4-fluoro-7-[5-(4-fluorobenzyl)-1H-[1,2,3]triazol-1-yl]-6,7,8,9-tetrahydropyrido[1,2-a]indol-10-yl}-acetic acid]
FEV1: Estimated Mean Treatment Difference at Week 4 by Genotype Subgroup for rs12748961, LSMean ([1]; C = 0 (N = 74), no copies of the C allele): 59 mL
FEV1: Estimated Mean Treatment Difference at Week 4 by Genotype Subgroup for rs12748961, LSMean ([1]; C ≥1 (N = 29), one or two copies of the C allele): 268 mL
Estimated mean treatment difference in FEV1 at Week 4 using the new method of analysis, LSMean ([1]; missing period 2 FEV1 baselines imputed: No (N = 85)): 120 mL
Estimated mean treatment difference in FEV1 at Week 4 using the new method of analysis, LSMean ([1]; missing period 2 FEV1 baselines imputed: Yes (N = 103)): 122 mL
Effectiveness in improving FEV1 levels relative to placebo ([1]; after four weeks of treatment in patients who continue to take montelukast as background therapy): notably more effective
Estimated benefit (FEV1) in patients without the C allele of rs12748961 ([1]; remaining 70% of the patients (C = 0)): relatively small

O=C(O)CCn1c2c(c3ccccc31)C[C@H](NS(=O)(=O)c1ccc(F)cc1)CC2 [Ramatroban, 3-((3R)-3-{[(4-fluorophenyl)sulfonyl]amino}-1,2,3,4-tetrahydro-9H-carbazol-9-yl)propanoic acid]
Efficacy in allergic rhinitis [2]: some degree of efficacy

Cc1c(CC(=O)O)c2cccnc2n1Cc1ccc(S(C)(=O)=O)cc1C(F)(F)F [fevipiprant, 2-(2-methyl-1-(4-(methylsulfonyl)-2-(trifluoromethyl)benzyl)-1H-pyrrolo[2,3-b]pyridin-3-yl)acetic acid]
Sputum eosinophils [3]: reduction of sputum eosinophils
